# Reference: US20230203485A1, “METHODS FOR MODULATING MHC-I EXPRESSION AND IMMUNOTHERAPY USES THEREOF” (Dana-Farber Cancer Institute, Inc., priority 2020, published 2023)
# Tested on: class I antigen presentation gene expression in MCC cell lines
# Assay: RNA-seq / DESeq2 differential expression of MCC cell lines at baseline and after IFN-γ stimulation
# Assay type: cell-based, human
# Conditions: for log2FoldChange: 11 MCC cell lines, baseline vs IFNγ, negative LFC = upregulation in IFNγ-treated
# Protocol: FIG. 2A comprises RNA-seq heatmaps of class I antigen presentation gene expression in MCC lines and controls.
# FIG. 2B is a volcano plot of differentially expressed genes (genes below FDR cutoff 0.01 are shown in yellow) between baseline and IFN-γ-treated MCC cell lines. Differential expression analysis was performed using DESeq2, and negative LFC indicates increased expression in +IFN-γ samples. IFN genes are highlighted in red.
# RNA samples were first assessed for quality using the Agilent Bioanalyzer (DV200 metric). One hundred ng of RNA were used as the input for first strand cDNA synthesis using Superscript III reverse transcriptase and Illumina's TruSeq RNA Access Sample Prep Kit. Synthesis of the second strand of cDNA was followed by indexed adapter ligation with UMI (unique molecular index) adaptors. Subsequent PCR amplification enriched for adapted fragments. Amplified libraries were quantified, normalized, pooled, and hybridized with exome targeting oligos. Following hybridization, bead clean-up, elution and PCR was performed to prepare library pools for sequencing on Illumina flowcell lanes. Transcriptomes were sequenced to a coverage of at least 50 million reads in pairs.
# Raw fastq files for fibroblast and keratinocyte control lines were downloaded from SRA using R Bioconductor package SRAdb (Mayakonda et al. (2018) supra; Zhu et al. (2013) BMC Bioinformatics 14 (1): 1-4) using accession codes SRP126422 (4 replicates from control samples ‘NN’) and SRP131347 (6 replicates with condition: control and genotype: control). These fastq files, along with those for the mkl1 and waga cell lines, were aligned using STAR version 2.7.3a (Dobin et al. (2013) Bioinformatics 29 (1): 15-21), using index genome reference file downloaded from ftp.ebi.ac.uk/pub/databases/gencode/Gencode_human/release_19/GRCh37.p13.genome.fa.gz, transcript annotation file downloaded from data.broadinstitute.org/snowman/hg19/star/gencode.v19.annotation.gtf, and with the following options: --twopassMode Basic, --outSAMstrandField intronMotif, --alignIntronMax 1000000, --alignMatesGapMax 1000000, --sjdbScore 2, --outSAMtype BAM Unsorted, --outSAMattributes NH HI NM MD AS XS, --outFilterType BySJout, --outSAMunmapped Within, --genomeLoad NoSharedMemory, --outFilterScoreMinOverLread 0, --outFilterMatchNminOverLread 0, --outFilterMismatchNmax 999, and outFilterMultimapNmax 20. Duplicates were marked with picard MarkDuplicates version 2.22.0-SNAPSHOT.
# RNA-sequencing bam files for MCC tumor and cell line samples were downloaded from the Broad Genomics Firecloud/Terra platform using the Google Cloud Storage command line tool gsutil version 4.5 (github.com/GoogleCloudPlatform/gsutil/).
# Gene counts were obtained from bam files using featureCounts version 2.0.0 (doi.org/10.1093/bioinformatics/btt656). Very lowly expressed genes with average count across samples less than 1 were excluded from analysis. Between-sample distance metrics were computed using the Euclidean distance on the vectors of variance-stabilized counts obtained from the vst function in the DESeq2 R Bioconductor package ([…]; Love et al. (2014) Genome Biology 15 (12): 550).
# Differential expression analysis was carried out between (1) viral positive and viral negative samples (adjusting for cell line or tumor as a covariate), (2) cell line and tumor samples (adjusting for viral status as a covariate), and (3) IFNγ plus and minus samples (adjusting for viral status as a covariate) using the negative binomial GLM Wald test of DESeq2, where significance was assessed using the p-values adjusted for multiple comparisons under default settings. To account for potential global gene expression differences among sample groups, RUVg (Risso et al. (2014) […] 32 (9): 896-902) was used to estimate latent factors of unwanted variation from the list of housekeeping genes downloaded from www.tau.ac.il/˜elieis/HKG/HK_genes.txt. […]
substance,measurement,setting,value
"IFN-y: type II interferon, recombinant human, used to treat MCC cells",log2FoldChange,ENSG00000259321.1 (symbol NA),−2.031
same,log2FoldChange,ENSG00000259529.1 (symbol NA),−0.9956
same,log2FoldChange,ENSG00000260929.1 (symbol NA),−3.413
same,log2FoldChange,ENSG00000261644.1 (symbol NA),−3.585
same,log2FoldChange,ENSG00000261690.1 (symbol NA),−3.339
same,log2FoldChange,ENSG00000261884.2 (symbol NA),−2.414
same,log2FoldChange,ENSG00000262222.1 (symbol NA),−3.296
same,log2FoldChange,ENSG00000262979.1 (symbol NA),−3.334
same,log2FoldChange,ENSG00000263013.1 (symbol NA),−1.286
same,log2FoldChange,ENSG00000263120.1 (symbol NA),−1.445
same,log2FoldChange,ENSG00000263179.1 (symbol NA),−3.474
same,log2FoldChange,ENSG00000269640.1 (symbol NA),−6.567
same,log2FoldChange,ENSG00000271579.1 (symbol NA),−6.737
same,log2FoldChange,ENSG00000273189.1 (symbol NA),−1.701
same,log2FoldChange,EPSTI1 ENSG00000133106.10,−3.837
same,log2FoldChange,FBXO7 ENSG00000100225.13,−0.4101
same,log2FoldChange,FBXO39 ENSG00000177294.6,−6.492
same,log2FoldChange,FBXO47 ENSG00000204952.2,−4.04
same,log2FoldChange,FLT3LG ENSG00000090554.8,−2.012
same,log2FoldChange,HELZ2 ENSG00000130589.12,−1.739
same,log2FoldChange,ICAM1 ENSG00000090339.4,−6.633
same,log2FoldChange,IFI27 ENSG00000165949.8,−3.4
same,log2FoldChange,IFI35 ENSG00000068079.3,−6.454
same,log2FoldChange,IL12RB1 ENSG00000096996.11,−4.561
same,log2FoldChange,IRF8 ENSG00000140968.6,−2.927
same,log2FoldChange,IRF9 ENSG00000213928.4,−2.537
same,log2FoldChange,ISG20 ENSG00000172183.10,−2.416
same,log2FoldChange,KRT39 ENSG00000196859.3,−4.95
same,log2FoldChange,LGALS3BP ENSG00000108679.8,−1.502
same,log2FoldChange,LGALS9 ENSG00000168961.12,−2.739
same,log2FoldChange,LGALS17A ENSG00000226025.5,−5.881
same,log2FoldChange,LINC01993 ENSG00000204277.1,−2.419
same,log2FoldChange,LOC254028 ENSG00000258573.1,−5.436
same,log2FoldChange,LOC100294362 ENSG00000263069.1,1.32
same,log2FoldChange,LOC100996660 ENSG00000267248.1,−0.6048
same,"HLA-A, -B, and -C mRNA","MCC-336, line non-IFN-responsive by flow cytometry","lack of IFN-induced HLA-A, -B, and -C mRNA upregulation"
same,log2FoldChange,MIR762HG ENSG00000260083.1,−0.6586
same,log2FoldChange,MLKL ENSG00000168404.8,−2.957
same,log2FoldChange,MT2A ENSG00000125148.6,−1.532
same,log2FoldChange,MVP ENSG00000013364.14,−1.512
same,log2FoldChange,MX2 ENSG00000183486.8,−5.048
same,log2FoldChange,MXI ENSG00000157601.9,−7.168
same,log2FoldChange,NLRC5 ENSG00000140853.11,−5.85
same,log2FoldChange,NUCB1 ENSG00000104805.11,−0.6283
same,log2FoldChange,OAS1 ENSG00000089127.8,−4.621
same,log2FoldChange,OAS2 ENSG00000111335.8,−5.442
same,log2FoldChange,OAS3 ENSG00000111331.8,−2.277
same,log2FoldChange,OASL ENSG00000135114.8,−6.129
same,log2FoldChange,OGFR ENSG00000060491.12,−1
same,log2FoldChange,PARP4 ENSG00000102699.5,−1.087
same,log2FoldChange,PATL2 ENSG00000229474.2,−4.443
same,log2FoldChange,PLK1 ENSG00000166851.10,0.5496
same,log2FoldChange,PMAIP1 ENSG00000141682.11,−0.9928
same,log2FoldChange,PML ENSG00000140464.15,−1.421
same,log2FoldChange,PSMA3 ENSG00000100567.8,−0.4149
same,log2FoldChange,PSMB10 ENSG00000205220.7,−5.255
same,log2FoldChange,PSME1 ENSG00000092010.10,−1.964
same,log2FoldChange,PSME2 ENSG00000100911.9,−1.919
same,log2FoldChange,RAB2B ENSG00000129472.8,−0.4425
same,log2FoldChange,RIN3 ENSG00000100599.11,−2.337
same,log2FoldChange,RNF31 ENSG00000092098.12,−0.6387
same,log2FoldChange,RNF213 ENSG00000173821.15,−3.097
same,log2FoldChange,SAMHD1 ENSG00000101347.7,−2.663
same,log2FoldChange,SOCS1 ENSG00000185338.4,−2.585
same,log2FoldChange,SOCS3 ENSG00000184557.3,−1.797
same,log2FoldChange,SPTLC3 ENSG00000172296.8,−2.773
same,log2FoldChange,STAT3 ENSG00000168610.10,−0.9181
same,log2FoldChange,TEKT5 ENSG00000153060.3,−1.743
same,log2FoldChange,TRAFD1 ENSG00000135148.7,−0.5883
same,log2FoldChange,TRIM25 ENSG00000121060.10,−1.048
same,log2FoldChange,TRIM69 ENSG00000185880.8,−2.829
same,log2FoldChange,USP18 ENSG00000184979.9,−1.899
same,log2FoldChange,USP30-AS1 ENSG00000256262.1,−8.218
same,log2FoldChange,VPS13C ENSG00000129003.11,−0.9131
same,log2FoldChange,WARS ENSG00000140105.13,−3.32
same,log2FoldChange,WIPI1 ENSG00000070540.8,−1.205
same,log2FoldChange,XAFI ENSG00000132530.12,−11.47
same,log2FoldChange,ZBP1 ENSG00000124256.10,−5.347
same,log2FoldChange,ZNFX1 ENSG00000124201.10,−1.109
